ChEMBL document CHEMBL4043157, “Benzothiazole analogues: Synthesis, characterization, MO calculations with PM6 and DFT, in silico studies and in vitro antimalarial as DHFR inhibitors and antimicrobial activities” (Bioorg Med Chem, 2017)
Values after ≈ are worked out from the molar mass of the structure shown. Active and inactive are the calls of the source. The rule behind the calls is not given here.

Key:
Staphylococcus aureus = experiment: Antimicrobial activity against Staphylococcus aureus MTCC 96; format: functional
Streptococcus pyogenes = experiment: Antimicrobial activity against Streptococcus pyogenes MTCC 442; format: functional
Escherichia coli = experiment: Antimicrobial activity against Escherichia coli MTCC 443; format: functional
Pseudomonas aeruginosa = experiment: Antimicrobial activity against Pseudomonas aeruginosa MTCC 1688; format: functional
Candida albicans = experiment: Antimicrobial activity against Candida albicans MTCC 227; format: functional
Aspergillus clavatus [1] = experiment: Antimicrobial activity against Aspergillus clavatus MTCC 1323; format: functional
[2] = Cytotoxicity in Schizosaccharomyces pombe assessed as cell viability at 2 ug/ml (reference value: 94.67 +/- 1.53%); details: Schizosaccharomyces pombe cells, read-out: Activity
[3] = Cytotoxicity in Schizosaccharomyces pombe assessed as cell viability at 4 ug/ml (reference value: 94.67 +/- 1.53%); details: Schizosaccharomyces pombe cells, read-out: Activity
[4] = Cytotoxicity in Schizosaccharomyces pombe assessed as cell viability at 6 ug/ml (reference value: 94.67 +/- 1.53%); details: Schizosaccharomyces pombe cells, read-out: Activity
[5] = Cytotoxicity in Schizosaccharomyces pombe assessed as cell viability at 8 ug/ml (reference value: 94.67 +/- 1.53%); details: Schizosaccharomyces pombe cells, read-out: Activity
[6] = Cytotoxicity in Schizosaccharomyces pombe assessed as cell viability at 10 ug/ml (reference value: 94.67 +/- 1.53%); details: Schizosaccharomyces pombe cells, read-out: Activity
[7] = system: Schizosaccharomyces pombe; experiment: Genotoxicity in Schizosaccharomyces pombe assessed as induction of DNA damage by measuring appearance of DNA smear DNA band at 2 to 10 ug/ml by agarose gel electrophoresis
Plasmodium falciparum = experiment: Antimalarial activity against Plasmodium falciparum; format: functional
Dihydrofolate reductase = molecular target: T1, Dihydrofolate reductase (Bos taurus, UniProt P00376); experiment: Inhibition of bovine liver DHFR
T1 sequence (P00376 whole entry): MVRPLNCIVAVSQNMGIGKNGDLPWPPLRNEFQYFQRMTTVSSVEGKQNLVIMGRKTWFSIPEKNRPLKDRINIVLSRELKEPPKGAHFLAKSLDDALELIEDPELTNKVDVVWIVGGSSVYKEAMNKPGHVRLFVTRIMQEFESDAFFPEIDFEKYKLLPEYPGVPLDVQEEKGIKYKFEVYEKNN

Aspergillus clavatus [8] = details: MTCC 1323

Compound	MIC (Staphylococcus aureus) [µM]	MIC (Streptococcus pyogenes) [µM]	MIC (Escherichia coli) [µM]	MIC (Pseudomonas aeruginosa) [µM]	MIC (Candida albicans)	MIC (Aspergillus clavatus [1]) [µM]	viability at 2 ug/ml [2] [%]	viability at 4 ug/ml [3] [%]	viability at 6 ug/ml [4] [%]	viability at 8 ug/ml [5] [%]	viability at 10 ug/ml [6] [%]	Activity [7]	IC50 (Plasmodium falciparum) [µM]	IC50 (Dihydrofolate reductase) [µM]	MIC (Aspergillus clavatus [8])
O=[N+]([O-])c1cccc(/C=N/c2nc3ccccc3s2)c1	707 (≈ 200 µg/mL)	883 (≈ 250 µg/mL)	883 (≈ 250 µg/mL)	221 (≈ 62.6 µg/mL)	1770 µM (≈ 501 µg/mL)	883 (≈ 250 µg/mL)	88.7	84	79.3	74.7	70.3	Toxic	0.201	0.0312	
CCn1cc(C(=O)O)c(=O)c2cc(F)c(N3CCNCC3)cc21 [NORFLOXACIN]	31 (≈ 9.9 µg/mL)	31 (≈ 9.9 µg/mL)	31 (≈ 9.9 µg/mL)	31 (≈ 9.9 µg/mL)											
O=C(N[C@H](CO)[C@H](O)c1ccc([N+](=O)[O-])cc1)C(Cl)Cl [CHLORAMPHENICOL]	155 (≈ 50.1 µg/mL)	155 (≈ 50.1 µg/mL)	155 (≈ 50.1 µg/mL)	155 (≈ 50.1 µg/mL)											
Brc1ccc(/C=N/c2nc3ccccc3s2)cc1	791 (≈ 251 µg/mL)	633 (≈ 201 µg/mL)	198 (≈ 62.8 µg/mL)	396 (≈ 126 µg/mL)	inactive		77.3	73.3	72.3	68.3	66.3	Toxic	0.288	0.0455	inactive
Clc1ccc(/C=N/c2nc3ccccc3s2)cc1	460 (≈ 125 µg/mL)	368 (≈ 100 µg/mL)	735 (≈ 200 µg/mL)	460 (≈ 125 µg/mL)	3680 µM (≈ 1000 µg/mL)	1840 (≈ 501 µg/mL)	89.3	87	82.7	78	75.3	Toxic	0.353	0.0415	
Fc1ccc(/C=N/c2nc3ccccc3s2)cc1	244 (≈ 62.5 µg/mL)	391 (≈ 100 µg/mL)	781 (≈ 200 µg/mL)	976 (≈ 250 µg/mL)	1950 µM (≈ 501 µg/mL)	1950 (≈ 501 µg/mL)	86.3	81.7	73	72.3	71.7	Toxic	1.48		
C(=N\c1nc2ccccc2s1)/c1cccs1	410 (≈ 100 µg/mL)	410 (≈ 100 µg/mL)	256 (≈ 62.6 µg/mL)	410 (≈ 100 µg/mL)	4100 µM (≈ 1000 µg/mL)		86	81.7	80.7	73	67	Toxic	1.02		inactive
O=[N+]([O-])c1ccccc1/C=N/c1nc2ccccc2s1	353 (≈ 100 µg/mL)	221 (≈ 62.6 µg/mL)	442 (≈ 125 µg/mL)	707 (≈ 200 µg/mL)	3530 µM (≈ 1000 µg/mL)		84.3	82	79.7	77	72.3	Toxic	0.396	0.0531	inactive
NYSTATIN					108 µM										108 µM
CC1(C)S[C@@H]2[C@H](NC(=O)[C@H](N)c3ccccc3)C(=O)N2[C@H]1C(=O)O [AMPICILLIN]	716 (≈ 250 µg/mL)	286 (≈ 99.9 µg/mL)	286 (≈ 99.9 µg/mL)	286 (≈ 99.9 µg/mL)											
O=C(O)c1cn(C2CC2)c2cc(N3CCNCC3)c(F)cc2c1=O [CIPROFLOXACIN]	151 (≈ 50 µg/mL)	151 (≈ 50 µg/mL)	75 (≈ 24.9 µg/mL)	75 (≈ 24.9 µg/mL)											
C(=N\c1nc2ccccc2s1)/c1ccc[nH]1	551 (≈ 125 µg/mL)	440 (≈ 100 µg/mL)	881 (≈ 200 µg/mL)	1100 (≈ 250 µg/mL)	2200 µM (≈ 500 µg/mL)	4400 (≈ 1000 µg/mL)	87	82.3	74.3	71.7	69.7	Toxic	1.91		
Oc1ccc(/C=N/c2nc3ccccc3s2)cc1	984 (≈ 250 µg/mL)	1970 (≈ 500 µg/mL)	394 (≈ 100 µg/mL)	394 (≈ 100 µg/mL)	inactive		87	75	69.3	68.3	65.3	Toxic	0.386	0.0512	inactive
COC1=CC(=O)C[C@@H](C)[C@]12Oc1c(Cl)c(OC)cc(OC)c1C2=O [GRISEOFULVIN]					1420 µM (≈ 501 µg/mL)	284 (≈ 100 µg/mL)									
CCc1nc(N)nc(N)c1-c1ccc(Cl)cc1 [PYRIMETHAMINE]													1		
C(=N\c1nc2ccccc2s1)/c1ccco1	877 (≈ 200 µg/mL)	439 (≈ 100 µg/mL)	548 (≈ 125 µg/mL)	877 (≈ 200 µg/mL)	4380 µM (≈ 1000 µg/mL)		78.7	73	64	62.3	61.7	Toxic	1.86		inactive
Clc1ccc(/C=N/c2nc3ccccc3s2)cc1Cl	409 (≈ 126 µg/mL)	327 (≈ 100 µg/mL)	409 (≈ 126 µg/mL)	409 (≈ 126 µg/mL)	inactive	1630 (≈ 502 µg/mL)	89	84.3	81	77	73.3	Toxic	0.98		
